One data set in a line: Water-solubility at 1 wt. % in distilled water. The class given is physicochemical. The note with it: 1 wt. % in ~pH7 distilled water at RT; clear = soluble, turbid = insoluble. The method, then:
Water-solubility of a chemical compound, and, for instance, water insolubility of condensation-curable amino-silicone pre-polymers, can be provided by the supplier. It can also be confirmed or determined as follows. Water-solubility was assessed by mixing 1 wt. % of the material in near neutral (˜pH7) distilled water at RT, followed by a brief vortex for homogeneity. A clear solution indicated a water-soluble material, whereas turbidity indicated an at least partly water-insoluble material.
In the case of `CCO[Si](C)(C)CCCN` [3-aminopropyldimethylethoxysilane], the water-solubility entry is “water soluble”.
The same measure, in the same setting: in the case of `CCO[Si](CCCN)(OCC)OCC` [Dynasylan® AMEO, 3-aminopropyltriethoxysilane] it was “soluble”; in that of `C[Si](C)(CCCN)O[Si](C)(C)CCCN` [GP-967, Bis 3-aminopropyl tetramethyldisiloxane], “turbid dispersion”; in that of `CCO[Si](CCCNCCN)(OCC)OCC` [N-(2-aminoethyl)-3-aminopropyltriethoxysilane], “water soluble”.
Take `CCO[Si](CCCNCCC[Si](OCC)(OCC)OCC)(OCC)OCC` [SIB1824.5, bis(triethoxy-silylpropyl) amine]: the water-solubility result was “insoluble”.
Same read-out and setting: in the case of `CCO[Si](CCCN1CCC[Si]1(OCC)OCC)(OCC)OCC` [SIT8187.2, 1-(3-(triethoxysilyl)propyl)-2,2-diethoxi-1-aza-2-silacyclopentane] it was “insoluble”.

Staying with this data set, now noted: Table 17.
Consider `CCO[Si](C)(CCCN)OCC` [3-Aminopropylmethyl-diethoxysilane], for which the “solubility (in Material Type)” value is given as “silane (soluble)”.
As to `CCO[Si](C)(CCCNCCC[Si](C)(OCC)OCC)OCC` [Bis[methyldiethoxysilyl-propyl] amine], the “solubility (in Material Type)” value is “silane (non soluble)”.
Same read-out and setting: under `C[Si]1(C)O[Si](C)(C)O[Si](C)(C)O[Si](C)(C)O[Si](C)(C)O1` [Decamethylcyclopenta-siloxane, Decamethylcyclopentasiloxane] stands “(soluble)”.
Turning to `CCO[Si](CCCNCCN)(OCC)OCC` [N-(2-aminoethyl)-3-aminopropyltriethoxysilane], the “solubility (in Material Type)” value is given as “silane (soluble)”.
